This assay deals with T1, MurG (Cereibacter sphaeroides, UniProt Q3J4M2).
T1 construct: full-length murG in pET28b(+), N-terminal His tag cut with thrombin, E. coli BL21(DE3); Triton X-100 extraction; start encoded by primer MGRPLLL
T1 sequence (Q3J4M2 1-364): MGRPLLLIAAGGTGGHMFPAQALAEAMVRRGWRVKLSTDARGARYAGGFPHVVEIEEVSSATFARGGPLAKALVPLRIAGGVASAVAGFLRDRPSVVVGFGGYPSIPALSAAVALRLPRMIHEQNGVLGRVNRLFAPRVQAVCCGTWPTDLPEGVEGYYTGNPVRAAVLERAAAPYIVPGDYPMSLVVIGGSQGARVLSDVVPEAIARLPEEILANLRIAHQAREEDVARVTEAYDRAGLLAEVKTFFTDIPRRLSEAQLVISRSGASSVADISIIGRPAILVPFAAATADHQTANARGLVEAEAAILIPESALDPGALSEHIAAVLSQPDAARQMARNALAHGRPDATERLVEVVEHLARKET
Kind of assay: liposome-pelleting assay, SDS-PAGE densitometry. As to conditions: 6 uM MurG, 4 mM phospholipid, 0.5 uM BSA, 20 mM Tris pH 8.0, room temperature. Type of assay: binding.

On to `CCCCCCCC/C=C\CCCCCCCC(=O)OC[C@H](COP(=O)(O)OCC(O)CO)OC(=O)CCCCCCC/C=C\CCCCCCCC` (mixture of isomers) [PGL, 1,2-di-(9Z-octadecenoyl)-sn-glycero-D-phospho-(1′-rac-glycerol)], for which, under “10 mol% PGL in PC liposomes (mixed membrane)”, the “% pelleted MurG” value is recorded as 92%.

As for `CCCCCCCC/C=C\CCCCCCCC(=O)OC[C@H](COP(=O)(O)OCC(O)COP(=O)(O)OC[C@@H](COC(=O)CCCCCCC/C=C\CCCCCCCC)OC(=O)CCCCCCC/C=C\CCCCCCCC)OC(=O)CCCCCCC/C=C\CCCCCCCC` (some centres unmarked) [CL, 1,1′,2,2′-tetra-(9Z-octadecenoyl) cardiolipin], the “% pelleted MurG” value (10 mol% CL in PC liposomes (mixed membrane)) was 92%.

(Values after paper PMC6381277, “Cardiolipin Alters Rhodobacter sphaeroides Cell Shape by Affecting Peptidoglycan Precursor Biosynthesis” (mBio, 2019).)
